Measured values from patent EP4527906A1, “OXIDATION RESISTANT COMPOSITIONS OF DINAHYDROHEXITOLS CONTAINING BENZOPHENONE OR ITS DERIVATIVES” (ROQUETTE FRERES, priority 2023, dated 2025).

Tests used:
Type in all cases: physicochemical
[1] = Thermal treatment test: yellow coloration index after heating; details: for Yellow coloration index After-Before: difference after minus before thermal test, 100 ppm antioxidant; for Yellow coloration index after thermal test: isosorbide solution with 100 ppm antioxidant, 245°C for 40 minutes under nitrogen
Protocol: (§1) The yellow coloration index, expressed in YID units, was measured using a Colorflex EZ from Hunterlab according to ASTM E313. The spectrophotometer is a sealed optics, 256-elements diode array, having a 400-700 nm spectral range and a high-resolution concave holographic grating. 55 grams of composition are placed at 65°C, in a 64 mm diameter cylindric cell including a ring and white disk cap. The coloration of the composition was measured as a liquid at 65°C.
(§2) The method hereafter is described for isosorbide as the chemical compound having at least one heterocycle, and is also applicable to any chemical compound having at least one heterocycle.
The thermal stability of compositions of isosorbide, was studied according to the following protocol: 70 g of a 80 wt% solution of isosorbide in water was placed in a three-necked round flask and inerted with high purity nitrogen (purity >99.9%) during 10 minutes at a flowrate of around 2000 mL/min. The product was then heated at 245°C using an oil bath for 40 minutes under a 500 mL/min nitrogen flowrate. Then the product was cooled down to 80°C under the same nitrogen flowrate and yellow coloration measurement (YID value) was measured immediately.
Coloration before and after "thermal treatment" as well as their difference is related to the product thermal stability, i.e. to the sensitivity of the product to oxidation.

[2] = PetroOxy test: induction time (resistance to oxidation)
Text: The resistance of compositions according to the invention to oxidation may indeed be characterized by this measurement called the "PetroOxy test" which consists in measuring over time the pressure inside a cell loaded with a sample of composition exposed to an initial pressure of dioxygen and a constant temperature. The protocol of this test is described below after.
as §2
3 grams of a purified 50 wt% dry matter isosorbide solution in distilled water with or without the addition of antioxidant are weighed precisely in a glass cup and then placed in the hermetic enclosure of the measuring device "PetroOxy" model 13-3002 from Petrotest, now Anton Paar GmbH. The air present in the cell is purged 3 times at room temperature with pure oxygen via a pressurized cylinder (Alphagas, purity >99.5%). The temperature and working pressure of pure oxygen is then set at 120°C and 700 kPa (7 bars) of oxygen. The pressure is continuously monitored during the experiment. The decrease in pressure in the test chamber is due to oxygen consumption during oxidation reactions of the sample studied. The variation in relative pressure during the experiment makes it possible to determine the time after which the sample begins its degradation by oxidation, which is called induction time, also referred as "OIT", under the test conditions.
The induction time of the sample is determined as follows:
The relative pressure of oxygen consumption is given by the relation (Pmax -Pt)/Pmax. Pmax is the maximum pressure attained by the system during the measurement, corresponding to the maximum pressure at the beginning of time, and Pt is the pressure as a function of time when oxygen is consumed. The induction time of the sample is given by the inflection point of the oxygen consumption curve, i.e. the intersection of the two linear domains as shown on figure Fig.1.
The longer the induction time, the greater the oxidation resistance of the sample. To calculate precisely this parameter, a calculation method by linear regression between the two-line segments before and after the inflection point is performed.

[3] = Yellow coloration index measurement (ASTM E313), before thermal treatment; details: isosorbide solution with 100 ppm antioxidant, measured as a liquid at 65°C
Protocol: as §1

[4] = isosorbide aqueous solution with 100 ppm antioxidant, 120°C and 7 bars of oxygen
[5] = listed as 4,4'-dihydroxy-benzophenone

SMILES	Yellow coloration index After-Before [1] [YID]	Yellow coloration index after thermal test [1] [YID]	Yellow coloration index after thermal test ([1]; listed as benzophenone)	% versus no antioxidant ([2]; change of induction time versus isosorbide solution without antioxidant (3.5 h), 100 ppm antioxidant)	Induction time [2, 4] [h]	Yellow coloration index before thermal test [3] [YID]	Yellow coloration index after thermal test [1, 5]	Yellow coloration index before thermal test [3, 5]	Yellow coloration index after thermal test ([1]; listed as 2-hydroxy-4-methoxy-benzophenone)	Induction time (hours) ([2]; isosorbide aqueous solution with 100 ppm antioxidant, 120°C and 7 bars of oxygen, listed as 2-hydroxy-4-methoxy benzophenone)
O=C(c1ccccc1)c1ccccc1 [Sample 2.1, Benzophenone]	6.4	7.7	lower than 10 YID	about 9%	3.8	1.3	–	–	–	–
O=C(c1ccc(O)cc1)c1ccc(O)cc1 [Sample 2.2, 4,4'-dihydroxy-benzophenone]	5.1	9.3	–	–	3.9	4.2	lower than 10 YID	lower than 10 YID	–	–
COc1ccc(C(=O)c2ccccc2)c(O)c1 [Sample 2.3, 2-hydroxy-4-methoxybenzophenone]	3.9	6.1	–	–	4.6	2.2	–	–	below 7 YID	around 4,6 hours
COc1ccc(C(=O)c2ccccc2O)c(O)c1 [Sample 2.4, 2,2'-dihydroxy-4-methoxybenzophenone]	37	49.3	–	–	5.2	12.3	–	–	–	–
CCCOC(=O)c1cc(O)c(O)c(O)c1 [Sample 3, Propyl gallate, reference compound]	5.2	14.3	–	–	–	9.1	–	–	–	–
